Reference: US20250281424A1 (New York Blood Center, Inc, priority 2020, published 2025)

Target: T1, human PF4 (Homo sapiens, UniProt P02776)
T1 construct: PF4 is a 70 amino acid, lysine-rich 7.8 kDa platelet-specific protein; made in house; host or cells: Escherichia coli BL21DE3 pLysS (pT7-7) and/or Drosophila S2 cells
T1 sequence (P02776 32-101): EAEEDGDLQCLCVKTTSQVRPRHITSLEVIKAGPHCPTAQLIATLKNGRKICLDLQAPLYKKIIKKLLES
Assay: Inhibition of PF4 tetramer formation (BS3 cross-linking, SDS-PAGE)
Format: biochemical
Conditions: for inhibition at 5 µM: 5 μM inhibitor; for inhibition at 5 µM / inhibition at 10 µM: read-out: % inhibition of PF4 tetramer formation at single concentration of inhibitor; for inhibition at 10 µM: 10 μM inhibitor (column A); for IC50: read-out: IC50 of PF4 tetramer formation inhibition
In short: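 Monomer, dimer, trimer and tetramer fractions were quantified by densitometry after reducing 12% SDS-PAGE of BS3-cross-linked (0.2 mM, 30 min, room temperature) PF4. Before cross-linking, 10 μg/ml E. coli-expressed human WT PF4 in PBS was exposed to compound for 15 min at 37° C or 60 min at room temperature; controls lacked compound.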

SMILES | inhibition at 5 µM | inhibition at 10 µM | IC50
C[C@@H](C(=O)C1C(=O)c2ccc(S(=O)(=O)c3ccc4c(c3)C(=O)C(C(=O)[C@H](C)N(C)C(=O)OC(C)(C)C)C4=O)cc2C1=O)N(C)C(=O)OC(C)(C)C (stereo partly drawn) [Example 156, tert-butyl N-[(2S)-1-[5-({2-[(2S)-2-{[(tert-butoxy)carbonyl](methyl)amino}propanoyl]-1,3-dioxo-2,3-dihydro-1H-inden-5-yl}sulfonyl)-1,3-dioxo-2,3-dihydro-1H-inden-2-yl]-1-oxopropan-2-yl]-N-methylcarbamate] | 94% | 100% | 6.3 µM
CC(C)(C)OC(=O)N[C@@H](Cc1ccccc1)C(=O)C1C(=O)c2ccc(C(=O)c3ccc4c(c3)C(=O)C(C(=O)[C@H](Cc3ccccc3)NC(=O)OC(C)(C)C)C4=O)cc2C1=O (stereo partly drawn) [Example 157, tert-butyl N-[(2S)-1-(5-{2-[(2S)-2-{[(tert-butoxy)carbonyl]amino}-3-phenylpropanoyl]-1,3-dioxo-2,3-dihydro-1H-indene-5-carbonyl}-1,3-dioxo-2,3-dihydro-1H-inden-2-yl)-1-oxo-3-phenylpropan-2-yl]carbamate] | 100% | 100% | 1.2 µM
CC(C)(C)OC(=O)N[C@@H](Cc1ccccc1)C(=O)C1C(=O)c2ccc(S(=O)(=O)c3ccc4c(c3)C(=O)C(C(=O)[C@H](Cc3ccccc3)NC(=O)OC(C)(C)C)C4=O)cc2C1=O (stereo partly drawn) [Example 158, tert-butyl N-[(2S)-1-[5-({2-[(2S)-2-{[(tert-butoxy)carbonyl]amino}-3-phenylpropanoyl]-1,3-dioxo-2,3-dihydro-1H-inden-5-yl}sulfonyl)-1,3-dioxo-2,3-dihydro-1H-inden-2-yl]-1-oxo-3-phenylpropan-2-yl]carbamate] | 100% | 100% | 1.4 µM
O=C(c1ccc2c(c1)C(=O)C(C(=O)C1CCN(C(=O)OCc3ccccc3)C1)C2=O)c1ccc2c(c1)C(=O)C(C(=O)C1CCN(C(=O)OCc3ccccc3)C1)C2=O (stereo not shown) [Example 159, benzyl 3-[5-(2-{1-[(benzyloxy)carbonyl]pyrrolidine-3-carbonyl}-1,3-dioxo-2,3-dihydro-1H-indene-5-carbonyl)-1,3-dioxo-2,3-dihydro-1H-indene-2-carbonyl]pyrrolidine-1-carboxylate] | 85% | 90% | 3.8 µM
O=C1c2ccc(S(=O)(=O)c3ccc4c(c3)C(=O)C(C(=O)C3CCN(C(=O)OCc5ccccc5)C3)C4=O)cc2C(=O)C1C(=O)C1CCN(C(=O)OCc2ccccc2)C1 (stereo not shown) [Example 160, benzyl 3-{5-[(2-{1-[(benzyloxy)carbonyl]pyrrolidine-3-carbonyl}-1,3-dioxo-2,3-dihydro-1H-inden-5-yl)sulfonyl]-1,3-dioxo-2,3-dihydro-1H-indene-2-carbonyl}pyrrolidine-1-carboxylate] | 75% | 88% | 5.1 µM
CC(C)(C)OC(=O)N1CCC[C@@H]1C(=O)C1C(=O)c2ccc(C(=O)c3ccc4c(c3)C(=O)C(C(=O)[C@H]3CCCN3C(=O)OC(C)(C)C)C4=O)cc2C1=O (stereo partly shown) [Example 161] | 87% | 93% | 1 µM
CC(C)(C)OC(=O)N1CCC[C@@H]1C(=O)C1C(=O)c2ccc(S(=O)(=O)c3ccc4c(c3)C(=O)C(C(=O)[C@H]3CCCN3C(=O)OC(C)(C)C)C4=O)cc2C1=O (stereo partly drawn) [Example 162, tert-butyl (2R)-2-[5-({2-[(2R)-1-[(tert-butoxy)carbonyl]pyrrolidine-2-carbonyl]-1,3-dioxo-2,3-dihydro-1H-inden-5-yl}sulfonyl)-1,3-dioxo-2,3-dihydro-1H-indene-2-carbonyl]pyrrolidine-1-carboxylate] | 86% | 94% | 2.6 µM
CC(C)(C)OC(=O)NCCC(=O)C1C(=O)c2ccc(C(=O)c3ccc4c(c3)C(=O)C(C(=O)CCNC(=O)OC(C)(C)C)C4=O)cc2C1=O (stereo not shown) [Example 163, tert-butyl N-(3-{5-[2-(3-{[(tert-butoxy)carbonyl]amino}propanoyl)-1,3-dioxo-2,3-dihydro-1H-indene-5-carbonyl]-1,3-dioxo-2,3-dihydro-1H-inden-2-yl}-3-oxopropyl)carbamate] | 87% | 93% | 13 µM
CC(C)(C)OC(=O)NCCC(=O)C1C(=O)c2ccc(S(=O)(=O)c3ccc4c(c3)C(=O)C(C(=O)CCNC(=O)OC(C)(C)C)C4=O)cc2C1=O (stereo not shown) [Example 164, tert-butyl N-[3-(5-{[2-(3-{[(tert-butoxy)carbonyl]amino}propanoyl)-1,3-dioxo-2,3-dihydro-1H-inden-5-yl]sulfonyl}-1,3-dioxo-2,3-dihydro-1H-inden-2-yl)-3-oxopropyl]carbamate] | 70% | 82% | 5 µM
CC[C@H](NC(=O)OCc1ccccc1)C(=O)C1C(=O)c2ccc(C(=O)c3ccc4c(c3)C(=O)C(C(=O)[C@H](CC)NC(=O)OCc3ccccc3)C4=O)cc2C1=O (stereo partly drawn) [Example 165, benzyl N—[(S)-1-(5-{2-[(2S)-2-{[(benzyloxy)carbonyl]amino}butanoyl]-1,3-dioxo-2,3-dihydro-1H-indene-5-carbonyl}-1,3-dioxo-2,3-dihydro-1H-inden-2-yl)-1-oxobutan-2-yl]carbamate] | 75% | 75% | 3.3 µM
CC[C@H](NC(=O)OCc1ccccc1)C(=O)C1C(=O)c2ccc(S(=O)(=O)c3ccc4c(c3)C(=O)C(C(=O)[C@H](CC)NC(=O)OCc3ccccc3)C4=O)cc2C1=O (stereo partly shown) [Example 166] | 59% | 84% | 3.4 µM
CN1CCC[C@H]1C(=O)C1C(=O)c2ccc(S(=O)(=O)c3ccc4c(c3)C(=O)C(C(=O)[C@@H]3CCCN3C)C4=O)cc2C1=O (stereo partly drawn) [Example 167, 2-[(2S)-1-methylpyrrolidine-2-carbonyl]-5-({2-[(2S)-1-methylpyrrolidine-2-carbonyl]-1,3-dioxo-2,3-dihydro-1H-inden-5-yl}sulfonyl)-2,3-dihydro-1H-indene-1,3-dione] | 18% | 36% | –
O=C(c1ccc2c(c1)C(=O)C(C(=O)Cn1cnnn1)C2=O)c1ccc2c(c1)C(=O)C(C(=O)Cn1cnnn1)C2=O (stereo not shown) [Example 168, 5-{1,3-dioxo-2-[2-(1H-1,2,3,4-tetrazol-1-yl)acetyl]-2,3-dihydro-1H-indene-5-carbonyl}-2-[2-(1H-1,2,3,4-tetrazol-1-yl)acetyl]-2,3-dihydro-1H-indene-1,3-dione] | 68% | 89% | 4.3 µM
O=C(Cn1cnnn1)C1C(=O)c2ccc(S(=O)(=O)c3ccc4c(c3)C(=O)C(C(=O)Cn3cnnn3)C4=O)cc2C1=O (stereo not shown) [Example 169, 5-({1,3-dioxo-2-[2-(1H-1,2,3,4-tetrazol-1-yl)acetyl]-2,3-dihydro-1H-inden-5-yl}sulfonyl)-2-[2-(1H-1,2,3,4-tetrazol-1-yl)acetyl]-2,3-dihydro-1H-indene-1,3-dione] | 70% | 86% | 3 µM
CC(C)(C)OC(=O)N[C@@H](C(=O)C1C(=O)c2ccc(C(=O)c3ccc4c(c3)C(=O)C(C(=O)[C@H](NC(=O)OC(C)(C)C)c3ccccc3)C4=O)cc2C1=O)c1ccccc1 (stereo partly drawn) [Example 170, tert-butyl N-[(1R)-2-(5-{2-[(2R)-2-{[(tert-butoxy)carbonyl]amino}-2-phenylacetyl]-1,3-dioxo-2,3-dihydro-1H-indene-5-carbonyl}-1,3-dioxo-2,3-dihydro-1H-inden-2-yl)-2-oxo-1-phenylethyl]carbamate] | 76% | 85% | 3.4 µM
CC(C)CCCC(=O)C1C(=O)c2ccc(S(=O)(=O)c3ccc4c(c3)C(=O)C(C(=O)CCCC(C)C)C4=O)cc2C1=O (stereo not shown) [Example 171, 2-(5-methylhexanoyl)-5-{[2-(5-methylhexanoyl)-1,3-dioxo-2,3-dihydro-1H-inden-5-yl]sulfonyl}-2,3-dihydro-1H-indene-1,3-dione] | 62% | 75% | –
N[C@@H](C(=O)C1C(=O)c2ccc(S(=O)(=O)c3ccc4c(c3)C(=O)C(C(=O)[C@H](N)c3ccccc3)C4=O)cc2C1=O)c1ccccc1 (stereo partly drawn) [Example 172, 2-[(2R)-2-amino-2-phenylacetyl]-5-({2-[(2R)-2-amino-2-phenylacetyl]-1,3-dioxo-2,3-dihydro-1H-inden-5-yl}sulfonyl)-2,3-dihydro-1H-indene-1,3-dione] | 81% | 93% | 1.6 µM
CC(C)(C)OC(=O)NCC(=O)C1C(=O)c2ccc(C(=O)c3ccc4c(c3)C(=O)C(C(=O)CNC(=O)OC(C)(C)C)C4=O)cc2C1=O (stereo not shown) [Example 173, tert-butyl N-(2-{5-[2-(2-{[(tert-butoxy)carbonyl]amino}acetyl)-1,3-dioxo-2,3-dihydro-1H-indene-5-carbonyl]-1,3-dioxo-2,3-dihydro-1H-inden-2-yl}-2-oxoethyl) carbamate] | 87% | 97% | 2.2 µM
CC(C)(C)OC(=O)NCC(=O)C1C(=O)c2ccc(S(=O)(=O)c3ccc4c(c3)C(=O)C(C(=O)CNC(=O)OC(C)(C)C)C4=O)cc2C1=O (stereo not shown) [Example 174, tert-butyl N-[2-(5-{[2-(2-{[(tert-butoxy)carbonyl]amino}acetyl)-1,3-dioxo-2,3-dihydro-1H-inden-5-yl]sulfonyl}-1,3-dioxo-2,3-dihydro-1H-inden-2-yl)-2-oxoethyl]carbamate] | 84% | 94% | 11 µM
